Values of other authors in US20160228384A1, “EMULSION CONTAINING TWO OILS AND STABILIZERS” (NANOMEDEX, LLC, priority 2015, published 2016).

Experiments:
[1] = not given; remark: listed apart in the source

| Structure (SMILES) | Solubility in Water [wt %] | Water Solubility in Solvent [wt %] | Log P [1] |
| --- | --- | --- | --- |
| CCCCOC(C)=O [Butyl acetate] | 0.64 | 0.98 | 1.8 |
| CCCC(=O)OCC [Ethyl butyrate] | 0.69 | 0.79 | 1.7 |
| CCCCCC(=O)OCC [Ethyl hexanoate] | 0.083 | 0.47 | 2.4 |

Now from value to compound:

| Solubility in Water [wt %] | Water Solubility in Solvent [wt %] | Log P [1] | Structure (SMILES) |
| --- | --- | --- | --- |
| 0.051 | 0.90 | 3.5 | CCCCCCCC(=O)OCC [Ethyl octanoate] |
| 0.043 | 0.566 | 2.4 | CCCCCCOC(C)=O [Hexyl acetate] |
| 0.018 | 0.02 | 3.4 | CCCCCCCCOC(C)=O [Octyl acetate] |
